Results on 97 molecules are retold here after ChEMBL document CHEMBL3507680, “University of Dundee, Gates Library screen for HepG2 cell viability”.

The series can be described thus: Human HepG2 cell viability assay in 384 well format. The settings on record: HepG2 cells, read-out: Inhibition. It counts as toxicity, cell-based. The arrangement: dose 125 nL, time 70.5 hour; concentration not given beside the values.
With `CN(Cc1ccccc1)c1ncccc1CNC1CCC1`, the cytotoxicity at 70.5 h is -2.38%.

For `COCCCN(Cc1cnc(-c2cccs2)nc1)C1CCN(C)CC1`, the cytotoxicity at 70.5 h is -12%.

As for `c1cncc(NCCNC2CCSCC2)c1`, the cytotoxicity at 70.5 h is -2.74%.

`CCN1C[C@@H](C(=O)O)[C@H](c2cccc(OC)c2)C1`: the cytotoxicity at 70.5 h was 5.16%.

`COc1cccc(S(=O)(=O)N2CCN(C)[C@@H]3CS(=O)(=O)C[C@@H]32)c1`: the cytotoxicity at 70.5 h was -4.74%.

Consider `O=c1cc(-c2ccncc2)nc(-c2ccc(CN3CC[C@H](O)C3)cc2)[nH]1`, for which the cytotoxicity at 70.5 h was -6.15%.

As to `Cc1cc(C(F)(F)F)nn1CCNC(=O)C(C)n1ccnc1C(C)C` (configuration not stated), the cytotoxicity at 70.5 h was 10.3%.

In the case of `CCc1nc(N)nc(N2CCCC3(CCN(C)CC3)CC2)c1C`, the cytotoxicity at 70.5 h stood at 0.239%.

Take `CCc1cnc(N)nc1N(C)CCc1cnn(C)c1`: the cytotoxicity at 70.5 h amounted to 45.7%.

As for `C=C(C)COc1ccccc1C(=O)NCCCc1nnn[nH]1`, the cytotoxicity at 70.5 h is -13%.

As for `C=C(C)COc1ccccc1NC(=O)N1CCOCC(CO)C1` (configuration not stated), the cytotoxicity at 70.5 h turned out to be 23.5%.

With `CCc1ccc(C2CC(=O)Nc3cc(NS(C)(=O)=O)ccc32)o1` (configuration not stated), the cytotoxicity at 70.5 h is 31.4%.

For `Cc1cc(C)n(CC2(CNC(=O)C(c3ccccc3C)N(C)C)CC2)n1` (configuration not stated), the cytotoxicity at 70.5 h is -10.8%.

Take `CCc1nn(C)c(Cl)c1CN(CC)Cc1cnn(CC)c1`: the cytotoxicity at 70.5 h was -6.7%.

As to `CCc1nnc(CN(C)c2cc(C)nc3c(C)c(C)nn23)o1`, the cytotoxicity at 70.5 h is -2.11%.

For `COc1ccc(N2CCN(C(=O)CCn3nnnc3C)CC2(C)C)cc1`, the cytotoxicity at 70.5 h is 14%.

For the molecule `CN(CCO)Cc1nnc(C2CCN(C(=O)C3CCOCC3)CC2)n1C`, the cytotoxicity at 70.5 h amounted to 1.69%.

For `CN(Cc1ccncn1)C(=O)CCC(=O)NC1CCCC1`, the cytotoxicity at 70.5 h is -9.64%.

Take `COCC(C)Nc1ccc(-c2nc(Cc3ccc(F)cc3)no2)cn1` (configuration not stated): the cytotoxicity at 70.5 h was found to be 27.4%.

Take `CSCCC1CC(=O)Nc2cc(O)c(C)cc21` (configuration not stated): the cytotoxicity at 70.5 h was found to be 25.3%.

Consider `CCNc1ncc(C(=O)NC2COC3(CCCC3)C2)cn1` (configuration not stated), for which the cytotoxicity at 70.5 h was -3.75%.

With `COc1ccc(Cn2cc(C(=O)N(C)Cc3cnccn3)nn2)cc1`, the cytotoxicity at 70.5 h was -14.3%.

Take `Cc1nc2ccc(C(=O)N3CCN(CCO)[C@@H]4CS(=O)(=O)C[C@@H]43)cc2o1`: the cytotoxicity at 70.5 h was -5.42%.

On to `CC(C)C(=O)NCC(=O)NCC1CCN(c2cnn(C)c(=O)c2)CC1`, for which the cytotoxicity at 70.5 h was 23.1%.

With `Cc1cc(C2CCC2)nc(N2CCC3(CCNC(=O)CC3)CC2)n1`, the cytotoxicity at 70.5 h was -13%.

For `CCn1cc(C(=O)N2CCCC3(CCC(=O)N(CCC(C)C)C3)C2)cn1` (configuration not stated), the cytotoxicity at 70.5 h is -5.07%.

As to `CCCc1nc(NCc2c(C)nn(CCC)c2C)c2cnn(C)c2n1`, the cytotoxicity at 70.5 h was -9.62%.

Regarding `CN(CCCc1nccn1C)c1nccc(N2CCC(O)C2)n1` (configuration not stated), the cytotoxicity at 70.5 h turned out to be 7.29%.

As to `CC[C@H](Nc1nc(C(C)C)nc2c1cnn2C)c1ccccc1`, the cytotoxicity at 70.5 h is -8.04%.

Turning to `CN(Cc1cc[nH]n1)C(=O)c1cn(Cc2c(F)cccc2F)nn1`, the cytotoxicity at 70.5 h is -8.9%.

Regarding `COc1ccc(OCc2cc(C(=O)N3C[C@@H](C)O[C@@H](C)C3)n[nH]2)c(Cl)c1`, the cytotoxicity at 70.5 h is -8.42%.

In the case of `CCn1ncnc1CN1CCC(CNC(=O)c2cccc(C)c2)C1` (configuration not stated), the cytotoxicity at 70.5 h was -15.4%.

Regarding `Cc1cc(C)n(C2CCN(c3ncnc4c3CCNCC4)C2)n1` (configuration not stated), the cytotoxicity at 70.5 h was -9.03%.

On to `COc1ccc(Cl)cc1-n1nc(C2CCCC2)nc1Cn1cnnn1`, for which the cytotoxicity at 70.5 h was determined as 5.4%.

As to `CC(C)C1CN(C(=O)c2cc(C3CC3)n[nH]2)CCC(=O)N1CC1CC1` (configuration not stated), the cytotoxicity at 70.5 h was -3.1%.

With `CSCc1noc(CNC(=O)C2CCN(C3CCCCC3)CC2)n1`, the cytotoxicity at 70.5 h was -21.4%.

On to `COc1cc(NCC(O)CN2CCCCCC2)ncn1` (configuration not stated), for which the cytotoxicity at 70.5 h is -7.58%.

Take `Cc1nc(C(C)N2Cc3ncccc3C2=O)cs1` (configuration not stated): the cytotoxicity at 70.5 h is -12.4%.

With `CCNC(=O)[C@@H]1C[C@@H](NC(=O)c2cccn2C)CN1CCCSC`, the cytotoxicity at 70.5 h is -6.56%.

With `CN1CCCCCC1C(=O)NCCCn1ncc2ccccc21` (configuration not stated), the cytotoxicity at 70.5 h is -11.3%.

Regarding `Cc1cc2nc(C(C)C)cc(N(C)CC3CCCN(CCO)C3)n2n1` (configuration not stated), the cytotoxicity at 70.5 h was -2.47%.

Take `CCn1cc(CN2CCC(CCC(=O)Nc3ccccc3Cl)CC2)cn1`: the cytotoxicity at 70.5 h was found to be 12.4%.

As for `CC1CCN(S(=O)(=O)N2CCCC(c3cccc(C(=O)O)c3)C2)CC1` (configuration not stated), the cytotoxicity at 70.5 h was -12.1%.

`Cc1cc(C(=O)N2CCCC(C(=O)c3nccn3C)C2)c(=O)[nH]c1C` (configuration not stated): the cytotoxicity at 70.5 h was determined as 7.95%.

As for `CN(C)C(C(=O)NCc1cc(C(C)(C)C)n[nH]1)c1ccc(F)cc1` (configuration not stated), the cytotoxicity at 70.5 h is -4.44%.

In the case of `Cc1cc(C2CCCCN2C(=O)CN2CC3(CCNCC3)OC2=O)no1` (configuration not stated), the cytotoxicity at 70.5 h is -6.52%.

As to `COCCCN1CC2(CCCN(c3ncc4nc[nH]c4n3)C2)CCC1=O` (configuration not stated), the cytotoxicity at 70.5 h is -11.3%.

In the case of `CCOCC1CCN(C(=O)C(c2ccccc2F)N(C)C)CC1` (configuration not stated), the cytotoxicity at 70.5 h was -8.49%.

Consider `CCc1nc(N)nc(N2CCCC3(CCOCC3)C2)c1C`, for which the cytotoxicity at 70.5 h is -7.63%.

Turning to `C1CCC(c2nnc3sc(C4CCCO4)nn23)C1` (configuration not stated), the cytotoxicity at 70.5 h stood at 10.1%.

Regarding `CC(C)N1CC(c2ncc(-c3ccc4c(c3)OCCO4)[nH]2)CC1=O` (configuration not stated), the cytotoxicity at 70.5 h was -5.64%.

`Cc1c(CNC(=O)C2CCCCCN2C)oc2ccccc12` (configuration not stated): the cytotoxicity at 70.5 h is -0.804%.

For the molecule `O=C(O)c1cc(-c2ccc3c(c2)OCO3)cc(S(=O)(=O)NC2CC2)c1`, the cytotoxicity at 70.5 h was -11.6%.

For `Cc1cnc(NCC(C)(C)N2CCCCC2)nc1`, the cytotoxicity at 70.5 h was -5.95%.

As to `Cc1nn(CCO)cc1CN1CCCN(C2CCCC2)CC1`, the cytotoxicity at 70.5 h was determined as 12.8%.

Turning to `CC(=O)N1CCc2nc(N(C)C)nc(NCCc3ccccc3)c2CC1`, the cytotoxicity at 70.5 h is -9.06%.

For the molecule `CCCC1C=CCN1C(=O)c1cc(COc2ccc3c(c2)OCO3)[nH]n1` (configuration not stated), the cytotoxicity at 70.5 h was -11%.

As to `CCCN1CC2(CCN(C)CC2)CC1C(=O)NCCn1nc(C)nc1C` (configuration not stated), the cytotoxicity at 70.5 h was determined as 6.07%.

For the molecule `CC(Nc1nc(-c2ccccc2)nc2c1CCNCC2)c1nccs1` (configuration not stated), the cytotoxicity at 70.5 h worked out at 2.31%.

Turning to `CC(c1cccc(-c2nccn2CCc2cn[nH]c2)c1)N(C)C` (configuration not stated), the cytotoxicity at 70.5 h was 4.99%.

Turning to `CC(C)[C@H]1CN(C2Cc3ccccc3C2)C[C@@H]1NS(C)(=O)=O`, the cytotoxicity at 70.5 h was 7.83%.

As for `COc1cc(N(C)CCCn2nc(C)cc2C)ncn1`, the cytotoxicity at 70.5 h was -10.8%.

For the molecule `CC(C)CC(O)C1CCN(Cc2cnc(-c3cccs3)nc2)CC1` (configuration not stated), the cytotoxicity at 70.5 h stood at 37.1%.

For the molecule `O=C(c1csnn1)N1CCc2[nH]nc(COc3cccc(Cl)c3)c2C1`, the cytotoxicity at 70.5 h was -2.42%.

With `Cc1nnsc1CNC(=O)Nc1cccc(N2CCN(C)C2=O)c1`, the cytotoxicity at 70.5 h was determined as 5.12%.

Consider `Cc1ncc(C(=O)N2CCCC(C(=O)c3nccn3C)C2)c(O)n1` (configuration not stated), for which the cytotoxicity at 70.5 h was found to be 9.55%.

As for `Cc1nc(C)c(CC(=O)N2C[C@@H](C(=O)O)[C@H](c3ccncc3)C2)s1`, the cytotoxicity at 70.5 h is -0.442%.

As for `c1cc2c(cc1-n1nc(C3CC3)nc1-c1csnn1)OCCO2`, the cytotoxicity at 70.5 h turned out to be 2.73%.

For `CN1CC2(CCN(Cc3cccc(C#N)c3)CC2)CC1=O`, the cytotoxicity at 70.5 h was 20.6%.

For `CCCn1cnnc1CN(C)C(=O)C1CCCN(C2CCN(C)CC2)C1` (configuration not stated), the cytotoxicity at 70.5 h was -9.33%.

As for `COCC[C@]1(O)CCN(C2CCN(C(=O)C3CCC3)CC2)C[C@H]1C`, the cytotoxicity at 70.5 h was -9.1%.

For the molecule `CN(Cc1cccc2ncccc12)C(=O)CCC(F)(F)F`, the cytotoxicity at 70.5 h was 27.3%.

In the case of `CC(C)N1CC2(CCCN(c3ccccn3)C2)CCC1=O` (configuration not stated), the cytotoxicity at 70.5 h was -6.62%.

Take `CCCc1nnc(N2CCC3(CC2)CN(C)C(=O)O3)o1`: the cytotoxicity at 70.5 h turned out to be 2.82%.

On to `COc1cccc(OCC2CCCN(Cc3ccncc3)C2)c1` (configuration not stated), for which the cytotoxicity at 70.5 h is -10.6%.

Turning to `CCN1CCC(CC(=O)N[C@H](C(=O)O)c2cccc(F)c2F)CC1`, the cytotoxicity at 70.5 h is -2.11%.

With `Cn1ccnc1C1CCCN(C(=O)c2cc(F)cc(F)c2)C1` (configuration not stated), the cytotoxicity at 70.5 h is -6.29%.

Turning to `CC(C)=CCN1C(=O)[C@H]2CC[C@@H]1CN(C(=O)CCc1n[nH]c(C)c1C)C2`, the cytotoxicity at 70.5 h was determined as 11.2%.

In the case of `CC(c1cccc(-c2cn(Cc3ccoc3)nn2)c1)N(C)C` (configuration not stated), the cytotoxicity at 70.5 h was -2.66%.

For the molecule `Cc1ccc(O)c(CN(Cc2ccccc2)Cc2nccs2)n1`, the cytotoxicity at 70.5 h is -4.83%.

Regarding `Cc1ccc(C(=O)N(C)CCCc2cnn(C)c2)cc1N1CCNC1=O`, the cytotoxicity at 70.5 h was 46.5%.

For `CCOCCn1nc(C)cc1C(=O)N1CC[C@](C)(O)C(C)(C)C1`, the cytotoxicity at 70.5 h stood at 2.52%.

With `Cc1n[nH]c(C)c1CCN(C)C(=O)C(c1cccnc1)N1CCOCC1` (configuration not stated), the cytotoxicity at 70.5 h was -4.73%.

In the case of `COc1cccc2c1OCC(C(=O)N1CCN(S(=O)(=O)N(C)C)CC1)C2` (configuration not stated), the cytotoxicity at 70.5 h was -2.76%.

`CSCCCNC(=O)c1coc(Cn2cnc3ccccc32)n1`: the cytotoxicity at 70.5 h was -6.75%.

In the case of `CN(Cc1cc[nH]n1)C(=O)c1ccc2c(c1)nc(N1CC[C@H](O)C1)n2C`, the cytotoxicity at 70.5 h was -1.12%.

For `CSc1nccc(-c2cccc(-c3ccn(CC4COCCO4)n3)c2)n1` (configuration not stated), the cytotoxicity at 70.5 h was -13.8%.

With `Cc1ccc(Oc2ncccc2CNC2Cc3ccccc3C2)cn1`, the cytotoxicity at 70.5 h was -8.21%.

Consider `CCC[C@@H]1CN(C(=O)c2cc3ccccc3cc2O)C[C@H]1N(C)C`, for which the cytotoxicity at 70.5 h stood at 28.4%.

With `Cc1cc(NC(C)Cn2cccn2)n2nccc2n1` (configuration not stated), the cytotoxicity at 70.5 h is -12.5%.

As to `O=C(c1ncc(F)cc1F)N1CCC(c2ncc[nH]2)CC1`, the cytotoxicity at 70.5 h was -14%.

Consider `CC(=O)c1cc(CN2C[C@@H](C(=O)O)[C@H](c3cccnc3)C2)cs1`, for which the cytotoxicity at 70.5 h was -7.32%.

Turning to `CN1CCN(Cc2ccc(-c3ccc(-c4ccn[nH]4)cc3)nc2)CC1`, the cytotoxicity at 70.5 h was 0.0371%.

For the molecule `Cc1ccc(CN2CCN(CC(=O)N(C)C)[C@@H]3CS(=O)(=O)C[C@@H]32)cc1C`, the cytotoxicity at 70.5 h was -3.23%.

`CN(C(=O)c1cccc(NCC(=O)O)c1)C(C1CC1)C1CC1`: the cytotoxicity at 70.5 h is -8.7%.

On to `Cc1ccc(CC(=O)N2C[C@@H](CN(C)C)[C@@H](CO)C2)cc1C`, for which the cytotoxicity at 70.5 h was -2.62%.

Take `CC(C)c1nccc(CN2CCC(c3nc4ccccc4n3C)CC2)n1`: the cytotoxicity at 70.5 h is -20.5%.
